ChEMBL document CHEMBL5634109, “Synthesis and mechanism of action of new purine derivatives against triple negative breast cancer” (Eur J Med Chem, 2023)
Active and inactive are the calls of the source. The calls are words filed in the database; no cut-off is given here.

Experiments:
MDA-MB-231 [1] = assay: Antiproliferative activity against human MDA-MB-231 cells assessed as reduction in viability at 4 uM incubated for 7.5 hrs by MTT assay; type: functional
MDA-MB-231 [2] = assay: Induction of apoptosis in human MDA-MB-231 cells assessed as apoptotic cells at 40 uM incubated for 48 hrs by Annexin V-FITC/PI staining based analysis; type: functional
[3] = biological target: Dual specificity tyrosine-phosphorylation-regulated kinase 1A (Homo sapiens, UniProt Q13627); assay: Inhibition of DYRK1A (unknown origin)
[4] = Antiproliferative activity against human HUVEC cells assessed as reduction in cell viability measured for 48 hrs by MTT assay; type: toxicity, cell-based
[5] = biological target: Dual specificity protein kinase CLK1 (Homo sapiens, UniProt P49759); assay: Inhibition of CLK1 (unknown origin)
Dual specificity protein kinase CLK1, sequence (P49759 whole entry): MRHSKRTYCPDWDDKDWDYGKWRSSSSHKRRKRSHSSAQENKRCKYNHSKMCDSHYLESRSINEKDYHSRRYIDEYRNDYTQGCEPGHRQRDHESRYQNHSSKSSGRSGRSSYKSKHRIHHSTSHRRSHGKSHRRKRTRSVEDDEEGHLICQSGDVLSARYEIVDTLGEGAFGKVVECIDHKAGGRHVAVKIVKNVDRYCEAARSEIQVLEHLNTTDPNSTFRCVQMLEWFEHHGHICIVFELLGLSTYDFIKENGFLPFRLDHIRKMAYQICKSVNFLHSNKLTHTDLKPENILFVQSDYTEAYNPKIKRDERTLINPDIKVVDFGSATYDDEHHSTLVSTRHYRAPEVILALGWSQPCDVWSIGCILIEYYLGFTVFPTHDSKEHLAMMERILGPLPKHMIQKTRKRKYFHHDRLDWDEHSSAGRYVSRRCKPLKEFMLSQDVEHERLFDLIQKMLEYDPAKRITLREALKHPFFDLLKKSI

[6] = biological target: Dual specificity protein kinase CLK2 (Homo sapiens, UniProt P49760); assay: Inhibition of CLK2 (unknown origin)
Dual specificity protein kinase CLK2, sequence (P49760 whole entry): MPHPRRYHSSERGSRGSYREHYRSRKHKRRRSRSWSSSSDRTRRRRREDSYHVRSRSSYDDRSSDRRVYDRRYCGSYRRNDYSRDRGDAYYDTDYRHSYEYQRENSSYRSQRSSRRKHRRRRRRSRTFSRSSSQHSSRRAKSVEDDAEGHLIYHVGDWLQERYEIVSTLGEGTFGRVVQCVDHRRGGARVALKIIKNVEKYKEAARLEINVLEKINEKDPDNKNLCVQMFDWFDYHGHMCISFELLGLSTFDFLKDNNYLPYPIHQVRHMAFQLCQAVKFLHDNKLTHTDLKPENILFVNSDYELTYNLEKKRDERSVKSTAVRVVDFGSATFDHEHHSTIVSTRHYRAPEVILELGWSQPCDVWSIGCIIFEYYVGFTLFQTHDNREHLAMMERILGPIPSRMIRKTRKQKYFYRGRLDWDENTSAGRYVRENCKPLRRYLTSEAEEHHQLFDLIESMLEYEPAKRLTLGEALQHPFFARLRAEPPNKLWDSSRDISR

[7] = biological target: Dual specificity protein kinase CLK4 (Homo sapiens, UniProt Q9HAZ1); assay: Inhibition of CLK4 (unknown origin)
Dual specificity protein kinase CLK4, sequence (Q9HAZ1 whole entry): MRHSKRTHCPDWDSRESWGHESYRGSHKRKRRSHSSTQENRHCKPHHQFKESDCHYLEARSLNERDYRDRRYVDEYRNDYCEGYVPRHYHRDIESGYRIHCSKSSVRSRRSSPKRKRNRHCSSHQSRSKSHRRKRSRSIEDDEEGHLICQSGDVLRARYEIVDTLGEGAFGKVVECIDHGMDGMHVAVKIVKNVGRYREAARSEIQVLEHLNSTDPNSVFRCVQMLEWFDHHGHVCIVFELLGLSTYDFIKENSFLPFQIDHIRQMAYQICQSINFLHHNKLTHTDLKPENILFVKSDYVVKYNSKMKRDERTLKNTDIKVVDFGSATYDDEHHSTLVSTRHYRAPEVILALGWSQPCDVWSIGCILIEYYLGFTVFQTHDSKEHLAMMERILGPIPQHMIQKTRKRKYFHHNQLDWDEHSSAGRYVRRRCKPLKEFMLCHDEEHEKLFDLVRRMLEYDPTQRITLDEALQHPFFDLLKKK

MDA-MB-231 [8] = assay: Antitumor activity against human MDA-MB-231 cells xenografted in nude mouse assessed as decrease in Ki67 expression at 10 mg/kg, ip measured for 3 days by immunohistochemistry analysis; type: functional, organism-based; settings: time 3.0 day
PC-3 = assay: Antiproliferative activity against human PC-3 cells assessed as reduction in cell viability measured for 48 hrs by MTT assay; type: functional, cell-based; settings: PC-3, 48 h
HUVEC [9] = assay: Antiangiogenesis activity in HUVEC cells at 62.5 nM incubated for 12 hrs by microscopic analysis; type: functional, cell-based; settings: Homo sapiens
MDA-MB-231 [10] = assay: Antitumor activity against human MDA-MB-231 cells xenografted in nude mouse assessed as inhibition of lung metastasis in tumor at 10 mg/kg, ip measured for 3 days; type: functional, organism-based; settings: time 3.0 day
MDA-MB-231 [11] = assay: Antitumor activity against human MDA-MB-231 cells xenografted in nude mouse assessed as decrease in tumor size at 10 to 20 mg/kg, ip measured for 3 days; type: functional, organism-based; settings: dose 10-20 mg/kg, time 3.0 day
MDA-MB-231 [12] = assay: Induction of apoptosis in human MDA-MB-231 cells assessed as increase in number of apoptotic bodies at 4 uM incubated for 48 hrs; type: functional, cell-based
MGC-803 = assay: Antiproliferative activity against human MGC-803 cells assessed as reduction in cell viability measured for 48 hrs by MTT assay; type: functional, cell-based; settings: MGC-803, 48 h
MDA-MB-231 [13] = assay: Inhibition of cell migration human MDA-MB-231 cells assessed as migration distance at 25 uM incubated for 48 hrs by wound healing assay (reference value: 642.72 micrometer); type: functional
HCT-116 = assay: Antiproliferative activity against human HCT-116 cells assessed as reduction in cell viability measured for 48 hrs by MTT assay; type: functional, cell-based; settings: HCT-116, 48 h
MDA-MB-231 [14] = assay: Induction of apoptosis in human MDA-MB-231 cells assessed as increase in number of cell debris at 4 uM incubated for 48 hrs; type: functional, cell-based
MDA-MB-231 [15] = assay: Induction of apoptosis in human MDA-MB-231 cells assessed as apoptotic cells at 4 uM incubated for 48 hrs by Annexin V-FITC/PI staining based analysis; type: functional
MDA-MB-231 [16] = assay: Antiproliferative activity against human MDA-MB-231 cells assessed as reduction in cell viability measured for 48 hrs by MTT assay; type: functional, cell-based; settings: MDA-MB-231, 48 h
MDA-MB-231 [17] = assay: Induction of ROS generation in human MDA-MB-231 cells assessed as increase in intracellular ROS level at 40 uM incubated for 48 hrs by DCFH-DA staining based fluorescence microscopic analysis (Rvb=41.4%); type: functional
MCF7 = assay: Antiproliferative activity against human MCF7 cells assessed as reduction in cell viability measured for 48 hrs by MTT assay; type: functional, cell-based; settings: MCF7, 48 h
MDA-MB-231 [18] = assay: Inhibition of cell migration human MDA-MB-231 cells at 0.01 to 0.4 uM incubated for 20 hrs by DAPI staining based analysis; type: functional; settings: dose 0.01-0.4 µM
HepG2 = assay: Antiproliferative activity against human HepG2 cells assessed as reduction in cell viability measured for 48 hrs by MTT assay; type: functional, cell-based; settings: HepG2, 48 h
NCI-H1299 = assay: Antiproliferative activity against human NCI-H1299 cells assessed as reduction in cell viability measured for 48 hrs by MTT assay; type: functional, cell-based; settings: NCI-H1299, 48 h
HUVEC [19] = assay: Antiangiogenesis activity in HUVEC cells at 0.03 to 0.3 uM incubated for 12 hrs by microscopic analysis; type: functional, cell-based; settings: Homo sapiens, dose 0.03-0.3 µM
[20] = biological target: Casein kinase I isoform epsilon (Homo sapiens, UniProt P49674); assay: Inhibition of CK1epsilon (unknown origin)
Casein kinase I isoform epsilon, sequence (P49674 whole entry, canonical isoform): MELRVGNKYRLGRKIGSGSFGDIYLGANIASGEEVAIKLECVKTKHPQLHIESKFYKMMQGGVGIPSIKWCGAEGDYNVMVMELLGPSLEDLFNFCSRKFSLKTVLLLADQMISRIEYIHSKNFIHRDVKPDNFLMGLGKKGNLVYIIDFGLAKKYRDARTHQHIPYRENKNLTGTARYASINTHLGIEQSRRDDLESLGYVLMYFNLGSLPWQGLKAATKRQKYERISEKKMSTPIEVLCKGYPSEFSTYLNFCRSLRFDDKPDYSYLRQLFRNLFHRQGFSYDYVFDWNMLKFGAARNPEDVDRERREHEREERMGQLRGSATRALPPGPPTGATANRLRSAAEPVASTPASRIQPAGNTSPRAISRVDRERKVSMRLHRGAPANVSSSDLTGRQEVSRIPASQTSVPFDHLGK

MDA-MB-231 [21] = assay: Induction of apoptosis in human MDA-MB-231 cells assessed as apoptotic cells at 4 uM incubated for 24 hrs by Annexin V-FITC/PI staining based analysis; type: functional
A549 = assay: Antiproliferative activity against human A549 cells assessed as reduction in cell viability measured for 48 hrs by MTT assay; type: functional, cell-based; settings: A549, 48 h
HT-29 = assay: Antiproliferative activity against human HT-29 cells assessed as reduction in cell viability measured for 48 hrs by MTT assay; type: functional, cell-based; settings: HT-29, 48 h
MDA-MB-231 [22] = assay: Antitumor activity against human MDA-MB-231 cells xenografted in nude mouse assessed as decrease in CD31 expression at 10 mg/kg, ip measured for 3 days by immunohistochemistry analysis; type: functional, organism-based; settings: time 3.0 day
Cell membrane = assay: Induction of mitochondrial membrane potential loss in human MDA-MB-231 cells assessed as increase in fluorescence intensity at 40 uM incubated for 48 hrs by TMRM dye based flow cytometry analysis (reference value: 97.5%)
K562 = assay: Antiproliferative activity against human K562 cells assessed as reduction in cell viability measured for 48 hrs by MTT assay; type: functional, cell-based; settings: K562, 48 h
MDA-MB-231 [23] = assay: Induction of apoptosis in human MDA-MB-231 cells assessed as apoptotic cells at 40 uM incubated for 12 hrs by Annexin V-FITC/PI staining based analysis; type: functional
MDA-MB-468 = assay: Antiproliferative activity against human MDA-MB-468 cells assessed as reduction in cell viability measured for 48 hrs by MTT assay; type: functional, cell-based; settings: MDA-MB-468, 48 h
MDA-MB-231 [24] = assay: Induction of apoptosis in human MDA-MB-231 cells assessed as change in cell shape at 4 uM incubated for 12 to 24 hrs; type: functional, cell-based; settings: time 12-24 hrs
[25] = biological target: Cyclin-dependent kinase 7 (Homo sapiens, UniProt P50613); assay: Inhibition of CDK7 (unknown origin)
Cyclin-dependent kinase 7, sequence (P50613 whole entry): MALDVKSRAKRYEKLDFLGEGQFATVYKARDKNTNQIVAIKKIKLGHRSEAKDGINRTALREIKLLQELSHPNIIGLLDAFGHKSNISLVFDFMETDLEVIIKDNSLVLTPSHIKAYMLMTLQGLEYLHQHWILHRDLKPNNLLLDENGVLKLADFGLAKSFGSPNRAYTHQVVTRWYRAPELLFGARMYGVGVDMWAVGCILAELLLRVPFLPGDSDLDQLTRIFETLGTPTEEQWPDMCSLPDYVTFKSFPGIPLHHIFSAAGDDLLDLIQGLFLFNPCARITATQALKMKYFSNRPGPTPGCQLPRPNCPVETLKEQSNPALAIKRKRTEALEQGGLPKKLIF

[26] = Antiproliferative activity against human HEK293 cells assessed as reduction in cell viability measured for 48 hrs by MTT assay; type: toxicity, cell-based
MDA-MB-231 [27] = assay: Inhibition of cell migration human MDA-MB-231 cells assessed as migration distance at 25 uM incubated for 24 hrs by wound healing assay (reference value: 642.72 micrometer); type: functional
MDA-MB-231 [28] = assay: Induction of apoptosis in human MDA-MB-231 cells assessed as formation of apoptotic bodies at 4 uM incubated for 6 hrs; type: functional, cell-based
MDA-MB-231 [29] = assay: Antitumor activity against human MDA-MB-231 cells xenografted in nude mouse assessed as reduction in tumor growth at 10 to 20 mg/kg, ip measured for 3 days; type: functional, organism-based; settings: dose 10-20 mg/kg, time 3.0 day
MDA-MB-231 [30] = assay: Induction of apoptosis in human MDA-MB-231 cells assessed as apoptotic cells at 4 uM incubated for 12 hrs by Annexin V-FITC/PI staining based analysis; type: functional
[31] = Hepatotoxicity in nude mouse at 10 mg/kg, ip measured for 3 days; type: toxicity, organism-based; settings: in vivo, 72 h, time 3 day
MDA-MB-231 [32] = assay: Antitumor activity against human MDA-MB-231 cells xenografted in nude mouse assessed as inhibition of spleen metastasis in tumor at 10 mg/kg, ip measured for 3 days; type: functional, organism-based; settings: time 3.0 day
MDA-MB-231 [33] = assay: Antiproliferative activity against human MDA-MB-231 cells assessed as reduction in viability at 10 uM incubated for 7.5 hrs by MTT assay; type: functional
MDA-MB-231 [34] = assay: Antitumor activity against human MDA-MB-231 cells xenografted in nude mouse assessed as inhibition of proliferation of tumor cells at 10 mg/kg, ip measured for 3 days by H and E staining based analysis; type: functional, organism-based; settings: time 3.0 day
[35] = Toxicity in nude mouse xenografted with human MDA-MB-231 cells assessed as change in body weight at 10 to 20 mg/kg, ip measured for 3 days; type: organism-based; settings: in vivo, 72 h, dose 10-20 mg/kg, time 3 day
MDA-MB-231 [36] = assay: Induction of apoptosis in human MDA-MB-231 cells assessed as apoptotic cells at 40 uM incubated for 24 hrs by Annexin V-FITC/PI staining based analysis; type: functional

- IC50 [3]: 122 nM
- IC50 [5]: 278 nM
- IC50 [6]: 23 nM
- IC50 [7]: 73 nM
- IC50 (PC-3): 3920 nM
- IC50 (MGC-803): 3520 nM
- IC50 (HCT-116): 2790 nM
- IC50 (MDA-MB-231 [16]): 3550 nM
- IC50 (MCF7): 2670 nM
- IC50 (HepG2): 250 nM
- IC50 (NCI-H1299): 4050 nM
- IC50 [20]: 38 nM
- IC50 (A549): 370 nM
- IC50 (HT-29): 3370 nM
- Activity (Cell membrane): 80.9%
- IC50 (K562): 240 nM
- IC50 (MDA-MB-468): 3690 nM
- IC50 [25]: 390 nM
Structure (SMILES): OCCN1CCC(C2CCN(c3nc(NCc4cccc(F)c4F)c4ncn(C5CCCC5)c4n3)CC2)CC1
- Activity (MDA-MB-231 [1]): ~100%
- Activity (MDA-MB-231 [2]): >95%
- IC50 at 48 h [4]: 6180 nM
- Activity (MDA-MB-231 [8]): Active
- Activity (HUVEC [9]): Active
- Activity (MDA-MB-231 [10]): Active
- Activity (MDA-MB-231 [11]): Active
- Activity (MDA-MB-231 [12]): Active
- Activity (MDA-MB-231 [13]): 53.38 um
- Activity (MDA-MB-231 [14]): Active
- Activity (MDA-MB-231 [15]): 54.9%
- Activity (MDA-MB-231 [17]): 48.6%
- inhibition (MDA-MB-231 [18]): Active
- Activity (HUVEC [19]): Active
- Activity (MDA-MB-231 [21]): 13%
- Activity (MDA-MB-231 [22]): Active
- Activity (MDA-MB-231 [23]): >95%
- Activity (MDA-MB-231 [24]): Active
- IC50 at 48 h [26]: 4280 nM
- Activity (MDA-MB-231 [27]): 24.88 um
- Activity (MDA-MB-231 [28]): Active
- Activity (MDA-MB-231 [29]): Active
- Activity (MDA-MB-231 [30]): 5.6%
- Activity [31]: Non-Toxic
- Activity (MDA-MB-231 [32]): Active
- Activity (MDA-MB-231 [33]): ~100%
- Activity (MDA-MB-231 [34]): Active
- Activity [35]: Non-Toxic
- Activity (MDA-MB-231 [36]): >95%
